Where two headings read alike, the source gives them in different places.
System: Gli1-mediated transcription
Assay: Gli1-mediated transcriptional luciferase reporter assay
Assay type: cell-based
Description: Gli1-mediated transcriptional luciferase reporter assay was performed using Shh-LIGHT2 cells in order to evaluate the effects on activation and inhibition of Gli1-mediated transcription by the compounds of the disclosure. Brief assay procedure is provided below. […] Shh-LIGHT2 cells were harvested from about 80% confluent 10-cm dish using 0.25% Trypsin-EDTA solution. Medium was removed, and cells were washed with 5 mL DPBS and aspirated. Then, 1 mL 0.25% Trypsin-EDTA solution was added to a 10-cm dish. The dish was placed in the incubator for 1-3 minutes, or until cells have detached. 3 mL of cell growth medium (DMEM, 10% FBS, 1% PenStrep, 1% sodium pyruvate, and 1% GlutaMax) was added to the 10-cm dish, and the contents were transferred to a conical tube. […] The cell assay plate was removed from incubator after cells reached confluency. The culture medium was then manually removed from the cell plates, and the plates were centrifuged at 200 rpm for 30 seconds. […] After 30 min incubation of antagonist, cells were stimulated with agonist (purmorphamine, 5 μL, 1.5 μM final), then incubate for 24 h at 37° C./5% CO2. […] Luciferase assay: After incubation, the cell assay plate was allowed to acclimate to room temperature. Then, 20 μL of Duo-Glo® Luciferase Reagent (Promega) was added to each well of cell assay plate. The plate was briefly spun down, mixed, and incubated for 30 minutes at room temperature. The cell plate was read using luminometer for firefly luminescence activity. Then, 20 μL of Duo-Glo® Step&Glo® Reagent (Promega) was added to each well of cell assay plate. The plate was briefly spun down, mixed, and incubated for 30 minutes at room temperature. The cell plate was read using luminometer for Renilla luminescence activity. Ratio of firefly: Renilla luminescence was calculated for each well. The compound well ratio was normalized to the ratio from a control well.

[1] = Shh-LIGHT2 cells, antagonist mode, purmorphamine 1.5 μM stimulation, 24 h, firefly luminescence, read-out: Gli1 IC50 firefly
[2] = Shh-LIGHT2 cells, antagonist mode, purmorphamine 1.5 μM stimulation, 24 h, ratio of firefly:Renilla luminescence, read-out: Gli1 IC50 firefly:Renilla ratio

IC50 [1] [µM] | IC50 [2] [µM] | SMILES | IC50 (Shh Light2, 24 h, read-out: Gli1 IC50 firefly) [µM] | IC50 (Shh Light2, 24 h, read-out: Gli1 IC50 firefly:Renilla ratio) [µM]
0.1 to 0.49 | 0.1 to 0.49 | Clc1ccccc1-c1nc2c([nH]1)CN(C1Cc3cccc(Cl)c3C1)CC2 (racemic) [Example 12, 5-(4-chloro-2,3-dihydro-1H-inden-2-yl)-2-(2-chlorophenyl)-4,5,6,7-tetrahydro-3H-imidazo[4,5-c]pyridine] | – | –
1 to 50 | 1 to 50 | O[C@H]1c2cc(Cl)ccc2C[C@@H]1N1CCc2nc(-c3ccccc3Cl)[nH]c2C1 (relative stereo) [Example 99, trans-6-chloro-2-(2-(2-chlorophenyl)-3,4,6,7-tetrahydro-5H-imidazo[4,5-c]pyridin-5-yl)-2,3-dihydro-1H-inden-1-ol] | – | –
0.1 to 0.49 | 0.1 to 0.49 | Clc1ccccc1-c1nc2c([nH]1)CN([C@@H]1CCc3cccc(Cl)c3C1)CC2 [Example 1-R, (R)-5-(8-chloro-1,2,3,4-tetrahydronaphthalen-2-yl)-2-(2-chlorophenyl)-4,5,6,7-tetrahydro-3H-imidazo[4,5-c]pyridine] | – | –
0.1 to 0.49 | 0.1 to 0.49 | Clc1ccccc1-c1nc2c([nH]1)CN([C@H]1CCc3cccc(Cl)c3C1)CC2 [Example 1-S, (S)-5-(8-chloro-1,2,3,4-tetrahydronaphthalen-2-yl)-2-(2-chlorophenyl)-4,5,6,7-tetrahydro-3H-imidazo[4,5-c]pyridine] | – | –
– | – | Clc1ccccc1-c1nc2c([nH]1)CN(C1Cc3ccccc3C1)CC2 [Example 2, 2-(2-chlorophenyl)-5-(2,3-dihydro-1H-inden-2-yl)-4,5,6,7-tetrahydro-3H-imidazo[4,5-c]pyridine] | 1 to 50 | 1 to 50
0.5 to 0.99 | 0.5 to 0.99 | Clc1ccc2c(c1)CC(N1CCc3nc(-c4ccccc4Cl)[nH]c3C1)CO2 (stereo not drawn) [Example 3, 5-(6-chlorochroman-3-yl)-2-(2-chlorophenyl)-4,5,6,7-tetrahydro-3H-imidazo[4,5-c]pyridine] | – | –
0.1 to 0.49 | 0.1 to 0.49 | COc1cccc2c1CCC(N1CCc3nc(-c4ccccc4Cl)[nH]c3C1)C2 (stereo not drawn) [Example 10, 2-(2-chlorophenyl)-5-(5-methoxy-1,2,3,4-tetrahydronaphthalen-2-yl)-4,5,6,7-tetrahydro-3H-imidazo[4,5-c]pyridine] | – | –
0.1 to 0.49 | 0.1 to 0.49 | Clc1ccc2c(c1)CC(N1CCc3nc(-c4ccccc4Cl)[nH]c3C1)CC2 (stereo not drawn) [Example 13, 5-(7-chloro-1,2,3,4-tetrahydronaphthalen-2-yl)-2-(2-chlorophenyl)-4,5,6,7-tetrahydro-3H-imidazo[4,5-c]pyridine] | – | –
1 to 50 | 1 to 50 | OC1c2c(Cl)cccc2CCC1N1CCc2nc(-c3ccccc3Cl)[nH]c2C1 (stereo not drawn) [Example 14, 8-chloro-2-(2-(2-chlorophenyl)-3,4,6,7-tetrahydro-5H-imidazo[4,5-c]pyridin-5-yl)-1,2,3,4-tetrahydronaphthalen-1-ol] | – | –
< 0.1 | 0.1 to 0.49 | COc1cccc2c1CC(N1CCc3nc(-c4ccccc4Cl)[nH]c3C1)CC2 (stereo not drawn) [Example 16, 2-(2-chlorophenyl)-5-(8-methoxy-1,2,3,4-tetrahydronaphthalen-2-yl)-4,5,6,7-tetrahydro-3H-imidazo[4,5-c]pyridine] | – | –
0.5 to 0.99 | 1 to 50 | Clc1cnccc1-c1nc2c([nH]1)CN(C1CCc3cccc(Cl)c3C1)CC2 (stereo not drawn) [Example 17, 5-(8-chloro-1,2,3,4-tetrahydronaphthalen-2-yl)-2-(3-chloropyridin-4-yl)-4,5,6,7-tetrahydro-3H-imidazo[4,5-c]pyridine] | – | –
1 to 50 | 1 to 50 | Cn1c(-c2ccccc2Cl)nc2c1CN(C1CCc3cccc(Cl)c3C1)CC2 (stereo not drawn) [Example 18, 5-(8-chloro-1,2,3,4-tetrahydronaphthalen-2-yl)-2-(2-chlorophenyl)-3-methyl-4,5,6,7-tetrahydro-3H-imidazo[4,5-c]pyridine] | – | –
< 0.1 | < 0.1 | CN1C2=C(CCN([C@@H]3CCc4cccc(Cl)c4C3)C2)NC1c1ccccc1Cl (stereo partly drawn) [Example 18-R, 5-((R)-8-chloro-1,2,3,4-tetrahydronaphthalen-2-yl)-2-(2-chlorophenyl)-3-methyl-2,3,4,5,6,7-hexahydro-1H-imidazo[4,5-c]pyridine] | – | –
0.1 to 0.49 | 0.1 to 0.49 | CN1C2=C(CCN([C@H]3CCc4cccc(Cl)c4C3)C2)NC1c1ccccc1Cl (stereo partly drawn) [Example 18-S, 5-((S)-8-chloro-1,2,3,4-tetrahydronaphthalen-2-yl)-2-(2-chlorophenyl)-3-methyl-2,3,4,5,6,7-hexahydro-1H-imidazo[4,5-c]pyridine] | – | –
0.1 to 0.49 | 0.1 to 0.49 | Clc1ccc2c(c1)CC(N1CCc3nc(-c4ccccc4Cl)[nH]c3C1)C2 (stereo not drawn) [Example 19, 5-(5-chloro-2,3-dihydro-1H-inden-2-yl)-2-(2-chlorophenyl)-4,5,6,7-tetrahydro-3H-imidazo[4,5-c]pyridine] | – | –
1 to 50 | 1 to 50 | O[C@@H]1Cc2ccccc2C[C@H]1N1CCc2nc(-c3ccccc3Cl)[nH]c2C1 [Example 20, (2R,3R)-3-(2-(2-chlorophenyl)-3,4,6,7-tetrahydro-5H-imidazo[4,5-c]pyridin-5-yl)-1,2,3,4-tetrahydronaphthalen-2-ol] | – | –
0.5 to 0.99 | 0.5 to 0.99 | Clc1ccc2c(c1)CC(N1CCc3nc(-c4cccc(Cl)c4Cl)[nH]c3C1)CC2 (stereo not drawn) [Example 21, 5-(7-chloro-1,2,3,4-tetrahydronaphthalen-2-yl)-2-(2,3-dichlorophenyl)-4,5,6,7-tetrahydro-3H-imidazo[4,5-c]pyridine] | – | –
0.5 to 0.99 | 0.1 to 0.49 | Fc1ccc(-c2nc3c([nH]2)CN(C2CCc4ccc(Cl)cc4C2)CC3)c(Cl)c1 (stereo not drawn) [Example 22, 5-(7-chloro-1,2,3,4-tetrahydronaphthalen-2-yl)-2-(2-chloro-4-fluorophenyl)-4,5,6,7-tetrahydro-3H-imidazo[4,5-c]pyridine] | – | –

SMILES | IC50 [1] [µM] | IC50 [2] [µM] | IC50 (Shh Light2, 24 h, read-out: Gli1 IC50 firefly) [µM] | IC50 (Shh Light2, 24 h, read-out: Gli1 IC50 firefly:Renilla ratio) [µM]
Clc1ccccc1-c1nc2c([nH]1)CN(C1CCc3cccc(Cl)c3C1)CC2 (stereo not drawn) [Example 1, 5-(8-chloro-1,2,3,4-tetrahydronaphthalen-2-yl)-2-(2-chlorophenyl)-4,5,6,7-tetrahydro-3H-imidazo[4,5-c]pyridine] | < 0.1 | 0.1 to 0.49 | – | –
COc1cccc(-c2nc3c([nH]2)CN(C2CCc4ccc(OC)cc4C2)CC3)c1 (stereo not drawn) [Example 4, 5-(7-methoxy-1,2,3,4-tetrahydronaphthalen-2-yl)-2-(3-methoxyphenyl)-4,5,6,7-tetrahydro-3H-imidazo [4,5-c]pyridine] | 0.5 to 0.99 | 1 to 50 | – | –
Fc1ccc2c(c1)CC(N1CCc3nc(-c4ccccc4F)[nH]c3C1)CC2 (stereo not drawn) [Example 5, 5-(7-fluoro-1,2,3,4-tetrahydronaphthalen-2-yl)-2-(2-fluorophenyl)-4,5,6,7-tetrahydro-3H-imidazo[4,5-c]pyridine] | 1 to 50 | 1 to 50 | – | –
Fc1ccccc1-c1nc2c([nH]1)CN(C1CCc3ccc(Cl)cc3C1)CC2 (stereo not drawn) [Example 6, 5-(7-chloro-1,2,3,4-tetrahydronaphthalen-2-yl)-2-(2-fluorophenyl)-4,5,6,7-tetrahydro-3H-imidazo[4,5-c]pyridine] | 1 to 50 | 1 to 50 | – | –
COc1ccc2c(c1)CCC(N1CCc3nc(-c4ccccc4F)[nH]c3C1)C2 (stereo not drawn) [Example 7, 2-(2-fluorophenyl)-5-(6-methoxy-1,2,3,4-tetrahydronaphthalen-2-yl)-4,5,6,7-tetrahydro-3H-imidazo[4,5-c]pyridine] | 1 to 50 | 1 to 50 | – | –
COc1ccc2c(c1)CC(N1CCc3nc(-c4ccccc4F)[nH]c3C1)CC2 (stereo not drawn) [Example 8, 2-(2-fluorophenyl)-5-(7-methoxy-1,2,3,4-tetrahydronaphthalen-2-yl)-4,5,6,7-tetrahydro-3H-imidazo[4,5-c]pyridine] | 1 to 50 | 1 to 50 | – | –
COc1cccc2c1CC(N1CCc3nc(-c4ccccc4F)[nH]c3C1)CC2 (stereo not drawn) [Example 9, 2-(2-fluorophenyl)-5-(8-methoxy-1,2,3,4-tetrahydronaphthalen-2-yl)-4,5,6,7-tetrahydro-3H-imidazo[4,5-c]pyridine] | 0.5 to 0.99 | 1 to 50 | – | –
Fc1ccccc1-c1nc2c([nH]1)CN(C1CCc3cccc(F)c3C1)CC2 (stereo not drawn) [Example 11, 5-(8-fluoro-1,2,3,4-tetrahydronaphthalen-2-yl)-2-(2-fluorophenyl)-4,5,6,7-tetrahydro-3H-imidazo[4,5-c]pyridine] | 1 to 50 | 1 to 50 | – | –
COc1ccc2c(c1)CC(N1CCc3nc(-c4ccccc4Cl)[nH]c3C1)CC2 (stereo not drawn) [Example 15, 2-(2-chlorophenyl)-5-(7-methoxy-1,2,3,4-tetrahydronaphthalen-2-yl)-4,5,6,7-tetrahydro-3H-imidazo[4,5-c]pyridine] | 0.1 to 0.49 | 0.1 to 0.49 | – | –

Source: patent US12209092B2, “Inhibitors of GLI1 as therapeutic agents” (NEW YORK UNIVERSITY, priority 2018, dated 2025)
